{"source": "paper PMC3532212", "about": "(PLoS ONE, 2012)", "key": {"human S1P4": {"biological_target": "T1, human S1P4 (Homo sapiens, UniProt O95977)", "T1 construct": "host or cells: U2OS (Tango EDG6-bla)", "T1 sequence (O95977 1-384)": "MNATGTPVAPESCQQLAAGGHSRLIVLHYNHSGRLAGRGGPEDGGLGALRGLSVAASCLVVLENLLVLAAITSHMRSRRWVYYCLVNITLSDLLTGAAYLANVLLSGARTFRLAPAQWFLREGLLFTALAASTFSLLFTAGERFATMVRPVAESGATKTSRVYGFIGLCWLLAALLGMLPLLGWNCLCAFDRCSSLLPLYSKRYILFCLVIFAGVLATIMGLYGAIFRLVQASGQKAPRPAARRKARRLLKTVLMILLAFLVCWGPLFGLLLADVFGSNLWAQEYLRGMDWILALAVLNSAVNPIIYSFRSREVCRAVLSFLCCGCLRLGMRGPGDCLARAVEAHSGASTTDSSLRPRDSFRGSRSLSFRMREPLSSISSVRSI", "assay": "B arrestin recruitment assay, Tango EDG6-bla U2OS cells", "assay_type": "cell-based", "details": "B arrestin, 18 hours agonist incubation", "description": "Tango™ EDG1-bla U2OS cells (Human S1P1), Tango™ EDG3-bla U2OS cells (human S1P3), Tango™ EDG6-bla U2OS cells (human S1P4) and Tango™ EDG8-bla U2OS cells (human S1P5) cell lines were cultured and assayed according to manufacturers instructions with one modification; agonists incubated on the cells for 18 hours prior to addition of the GenBlazer substrate. Final DMSO concentration in the assay is 1%."}, "[1]": {"assay": "Plasma concentrations after a single oral dose in rats", "assay_type": "in vivo", "details": "rat; for Plasma concentration: mean±SEM", "description": "Mean arterial pressure was assessed in conscious, freely moving male Sprague Dawley rats (n = 6–8/group; Charles River) instrumented with telemetry transmitters (DSI-Ponemah) and housed in metabolism cages as previously described, [26]. Tested compounds were solubilized in a 0.5% Methylcellulose/0.015% Tween 80 vehicle that was also dosed alone (p.o./QD, 5 mL/kg) as a control in the study. FTY720 was administered p.o. at 0.3, 1.0, 3.0, 10.0 mg/kg p.o. as a single dose or p.o./QD at 0.5, 1.5, and 5.0 mg/kg in a chronic study. BAF312 was administered p.o/QD at 0.3, 3.0, and 30 mg/kg as a single dose and in a chronic study. Mean arterial pressure and heart rate are shown as 1-hr and/or 24-hr mean values±SEM as described in the results. Blood samples in satellite rats were withdrawn at various timepoints as described in the results for analysis of plasma concentrations of the parent compound and, in the case of FTY720, also the phosphorylated metabolite, (S)-FTY720-P. Statistical analysis for the single-dose acute studies was based on one-way ANOVA to compare the treatment groups vs. vehicle for each time period after dosing (0–24 hrs, 24–48 hrs, and 48–72 hrs); statistical significance (p<0.05) was detected by Dunnett’s post-hoc test to compare treatment with vehicle controls. The statistical analysis in the chronic studies were based on one-way ANOVA with repeated measures to compare the treatment arms; statistical significance (p<0.05) was detected by Dunnett’s post-hoc test to compare treatment with vehicle controls."}, "[2]": {"assay": "Heart tissue concentrations at the end of the repeat-dosing study", "assay_type": "in vivo", "details": "rat", "description": "In the repeat-dosing study with FTY720 (0.5, 1.5, and 5.0 mg/kg/d), plasma concentrations were also determined ( Table 3 )."}}}
{"smiles": "CCCCCCCCc1ccc(CC[C@](N)(CO)COP(=O)(O)O)cc1", "note": "[FTY720-P]", "values": [{"measurement": "EC50", "setting": "human S1P4", "result": 26, "unit": "nM"}, {"measurement": "Plasma concentration at Tmax", "setting": "[1]; FTY720 0.3 mg/kg single oral dose", "result": "83 ± 3", "unit": "nM"}, {"measurement": "Plasma concentration", "setting": "[1]; FTY720 0.3 mg/kg single oral dose, 4 hr post-dose", "result": "66 ± 3", "unit": "nM"}, {"measurement": "Plasma concentration", "setting": "[1]; FTY720 0.3 mg/kg single oral dose, 8 hr post-dose", "result": "83 ± 3", "unit": "nM"}, {"measurement": "Plasma concentration", "setting": "[1]; FTY720 0.3 mg/kg single oral dose, 24 hr post-dose", "result": "43 ± 7", "unit": "nM"}, {"measurement": "Plasma concentration", "setting": "[1]; FTY720 0.3 mg/kg single oral dose, 48 hr post-dose", "result": "29 ± 3", "unit": "nM"}, {"measurement": "Plasma concentration", "setting": "[1]; FTY720 0.3 mg/kg single oral dose, 72 hr post-dose", "result": "4 ± 4", "unit": "nM"}, {"measurement": "Plasma concentration at Tmax", "setting": "[1]; FTY720 1.0 mg/kg single oral dose", "result": "263 ± 13", "unit": "nM"}, {"measurement": "Plasma concentration", "setting": "[1]; FTY720 1.0 mg/kg single oral dose, 4 hr post-dose", "result": "172 ± 16", "unit": "nM"}, {"measurement": "Plasma concentration", "setting": "[1]; FTY720 1.0 mg/kg single oral dose, 8 hr post-dose", "result": "263 ± 13", "unit": "nM"}, {"measurement": "Plasma concentration", "setting": "[1]; FTY720 1.0 mg/kg single oral dose, 24 hr post-dose", "result": "113 ± 2", "unit": "nM"}, {"measurement": "Plasma concentration", "setting": "[1]; FTY720 1.0 mg/kg single oral dose, 48 hr post-dose", "result": "81 ± 11", "unit": "nM"}, {"measurement": "Plasma concentration", "setting": "[1]; FTY720 1.0 mg/kg single oral dose, 72 hr post-dose", "result": "26 ± 4", "unit": "nM"}, {"measurement": "Plasma concentration at Tmax", "setting": "[1]; FTY720 3.0 mg/kg single oral dose", "result": "360 ± 55", "unit": "nM"}, {"measurement": "Plasma concentration", "setting": "[1]; FTY720 3.0 mg/kg single oral dose, 4 hr post-dose", "result": "285 ± 29", "unit": "nM"}, {"measurement": "Plasma concentration", "setting": "[1]; FTY720 3.0 mg/kg single oral dose, 8 hr post-dose", "result": "339 ± 36", "unit": "nM"}, {"measurement": "Plasma concentration", "setting": "[1]; FTY720 3.0 mg/kg single oral dose, 24 hr post-dose", "result": "360 ± 55", "unit": "nM"}, {"measurement": "Plasma concentration", "setting": "[1]; FTY720 3.0 mg/kg single oral dose, 48 hr post-dose", "result": "152 ± 14", "unit": "nM"}, {"measurement": "Plasma concentration", "setting": "[1]; FTY720 3.0 mg/kg single oral dose, 72 hr post-dose", "result": "165 ± 2", "unit": "nM"}, {"measurement": "Plasma concentration at Tmax", "setting": "[1]; FTY720 10 mg/kg single oral dose", "result": "1090 ± 124", "unit": "nM"}, {"measurement": "Plasma concentration", "setting": "[1]; FTY720 10.0 mg/kg single oral dose, 4 hr post-dose", "result": "559 ± 159", "unit": "nM"}, {"measurement": "Plasma concentration", "setting": "[1]; FTY720 10.0 mg/kg single oral dose, 8 hr post-dose", "result": "1145 ± 505", "unit": "nM"}, {"measurement": "Plasma concentration", "setting": "[1]; FTY720 10.0 mg/kg single oral dose, 24 hr post-dose", "result": "1090 ± 124", "unit": "nM"}, {"measurement": "Plasma concentration", "setting": "[1]; FTY720 10.0 mg/kg single oral dose, 48 hr post-dose", "result": "455 ± 57", "unit": "nM"}, {"measurement": "Plasma concentration", "setting": "[1]; FTY720 10.0 mg/kg single oral dose, 72 hr post-dose", "result": "629 ± 157", "unit": "nM"}, {"measurement": "time post-dose through which plasma values were detectable", "setting": "[1]; FTY720 single oral dose", "result": "at least 72 hrs"}, {"measurement": "mean tissue concentration in heart", "setting": "[2]; FTY720 0.5 mg/kg/d p.o.", "result": 513, "unit": "ng/g"}, {"measurement": "mean tissue concentration in heart", "setting": "[2]; FTY720 1.5 mg/kg/d p.o.", "result": 757, "unit": "ng/g"}, {"measurement": "mean tissue concentration in heart", "setting": "[2]; FTY720 5.0 mg/kg/d p.o.", "result": 3799, "unit": "ng/g"}]}
